# Patent publication US7858621B2 (Amorepacific Corporation, priority 2006, dated 2010)
# Molecular target: T1, vanilloid receptor (Rattus norvegicus, UniProt O35433)
# T1 construct: DRG nerve cells from the primary culture of 2 days were equilibrated; endogenous in cells; host or cells: primary culture of dorsal root ganglion neurons from neonatal SD rats
# Assay: 45Ca influx test in cultured neonatal rat DRG neurons, inhibition of capsaicin response
# Assay type: cell-based
# Conditions: neonatal rat DRG neurons, capsaicin 0.5 μM, 45Ca influx; read-out: Antagonist Calcium Uptake Test (IC50)
# Protocol: 1) Separation of Spinal Dorsal Root Ganglia (DRG) in Newborn Rats and Primary Culture Thereof
# Neonatal (2-3 day old or younger than 2-3 day old) SD rats were put in ice for 5 minutes to anesthetize and disinfected with 70% ethanol. […] The DRG were incubated sequentially at 37° C. for 30 mins in 200 U/ml collagenase and 2.5 mg/ml trypsin, separately. The ganglia were washed twice with DME/F12 medium supplemented with 10% horse serum, triturated through a fire-polished Pasteur pipette, filtered through Nitex 80 membrane to obtain single cell suspension and the suspension was washed once more. This was subjected to centrifugation, then resuspended in cell culture medium at certain level of cell density. As the cell culture medium, DME/F12 medium supplemented with 10% horse serum was diluted with identical medium conditioned by C6 glioma cells 2 days on a confluent monolayer (1:1), and NGF (Nerve Growth Factor) was added to adjust 200 ng/ml as final concentration. After the cells were grown 2 days in medium where cytosine arabinoside (Ara-C, 100 μM) was added to kill dividing nonneuronal cells, medium was changed to one without Ara-C. The resuspended cells were plated at a density of 1500-2000 neurons/well onto Terasaki plates previously coated with 10 μg/ml poly-D-ornithine.
# 2) ^45Ca Influx Experiments
# DRG nerve cells from the primary culture of 2 days were equilibrated by washing 4 times with HEPES (10 mM, pH 7.4)-buffered Ca^2+, Mg^2+-free HBSS (H-HBSS). The solution in each well was removed from the individual well. Medium containing the test compound plus capsaicin (final concentration 0.5 μM) and ^45Ca (final concentration 10 μCi/ml) in H-HBSS was added to each well and incubated at room temperature for 10 mins. Terasaki plates were washed five times with H-HBSS and dried at room temperature. To each well, 0.3% SDS (10 μl) was added to elute ^45Ca. After the addition of scintillation cocktail of into each well, the amount of ^45Ca influx into neuron was measured by counting radioactivity.
# T1 sequence (O35433 whole entry): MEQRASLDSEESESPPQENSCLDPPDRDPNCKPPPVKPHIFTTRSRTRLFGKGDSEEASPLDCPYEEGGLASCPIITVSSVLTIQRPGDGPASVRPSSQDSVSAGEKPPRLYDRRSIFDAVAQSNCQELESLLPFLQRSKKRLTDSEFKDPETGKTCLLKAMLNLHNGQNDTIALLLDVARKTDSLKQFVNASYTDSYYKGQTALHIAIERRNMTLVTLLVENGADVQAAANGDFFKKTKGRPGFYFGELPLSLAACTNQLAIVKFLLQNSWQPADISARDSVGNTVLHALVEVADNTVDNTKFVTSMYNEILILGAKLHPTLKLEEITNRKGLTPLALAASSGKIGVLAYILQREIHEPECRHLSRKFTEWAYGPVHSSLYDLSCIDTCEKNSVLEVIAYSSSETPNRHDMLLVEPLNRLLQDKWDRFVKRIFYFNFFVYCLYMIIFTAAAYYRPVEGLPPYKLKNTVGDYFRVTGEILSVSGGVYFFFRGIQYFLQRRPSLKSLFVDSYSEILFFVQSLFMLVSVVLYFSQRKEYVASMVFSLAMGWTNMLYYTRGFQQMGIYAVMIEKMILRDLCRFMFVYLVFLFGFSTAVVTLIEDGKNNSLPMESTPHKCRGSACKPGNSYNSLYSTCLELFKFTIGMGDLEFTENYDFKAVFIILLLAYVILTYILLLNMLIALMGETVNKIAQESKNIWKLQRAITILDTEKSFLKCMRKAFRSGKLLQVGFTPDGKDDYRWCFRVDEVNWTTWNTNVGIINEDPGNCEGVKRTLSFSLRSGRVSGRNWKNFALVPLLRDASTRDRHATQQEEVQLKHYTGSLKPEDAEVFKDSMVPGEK
row,SMILES,IC50
1,"C#Cc1cc(CNC(=O)/C=C/c2ccc(C(F)(F)F)nc2Oc2ccccc2)cc(F)c1NS(C)(=O)=O [Example 78, N-(3-Ethynyl-5-fluoro-4-methanesulfonylamino-benzyl)-3-(2-phenoxy-6-trifluoromethyl-pyridin-3-yl)-acrylamide]",120 nM
2,"C#Cc1cc(CNC(=O)/C=C/c2ccc(C(F)(F)F)nc2OC2CCOC2)cc(F)c1NS(C)(=O)=O (stereo not shown) [Example 79, 3-[2-(Tetrahydro-furan-3-yloxy)-6-trifluoromethyl-pyridin-3-yl]-N-(3-ethynyl-5-fluoro-4-methanesulfonylamino-benzyl)-acrylamide]",430 nM
3,"C#Cc1cc(CNC(=O)/C=C/c2ccc(C(F)(F)F)nc2-n2cccn2)cc(F)c1NS(C)(=O)=O [Example 80, N-(3-Ethynyl-5-fluoro-4-methanesulfonylamino-benzyl)-3-[2-pyrazol-1-yl-6-trifluoromethyl-pyridin-3-yl]-acrylamide]",3100 nM
4,"CS(=O)(=O)Nc1ccc(CNC(=O)/C=C/c2ccc(C(F)(F)F)nc2Oc2cccnc2)cc1F [Example 81, N-(3-Fluoro-4-methanesulfonylamino-benzyl)-3-[2-(pyridin-3-yloxy)-6-trifluoromethyl-pyridin-3-yl]-acrylamide]",11900 nM
5,"C#Cc1cc(CNC(=O)/C=C/c2ccc(C(F)(F)F)nc2Oc2ccc(F)cc2)cc(F)c1NS(C)(=O)=O [Example 82, N-(3-Ethynyl-5-fluoro-4-methanesulfonylamino-benzyl)-3-[2-(4-fluoro-phenoxy)-6-trifluoromethyl-pyridin-3-yl]-acrylamide]",600 nM
6,"C#Cc1cc(CNC(=O)/C=C/c2ccc(C(F)(F)F)nc2OCC(F)(F)F)cc(F)c1NS(C)(=O)=O [Example 84, N-(3-Ethynyl-5-fluoro-4-methansulfonylamino-benzyl)-3-[2-(2,2,2-trifluoro-ethoxy)-6-trifluoromethyl-pyridin-3-yl]-acrylamide]",240 nM
7,C#Cc1cc(CNC(=O)/C=C/c2ccc(C(F)(F)F)nc2N2CCC(OC)C2)cc(F)c1NS(C)(=O)=O (stereo not shown) [Example 85],180 nM
8,"CCCCOc1nc(C(F)(F)F)ccc1CCC(=O)NCc1ccc(NS(C)(=O)=O)c(F)c1 [Example 86, 3-(2-Butoxy-6-trifluoromethyl-pyridin-3-yl)-N-(3-fluoro-4-methanesulfonylamino-benzyl)-propionamide]",1200 nM
9,"CS(=O)(=O)Nc1ccc(CNC(=O)/C=C/c2ccc(C(F)(F)F)nc2OCC(F)(F)F)cc1F [Example 87, N-(3-Fluoro-4-methanesulfonylamino-benzyl)-3-[2-(2,2,2-trifluoro-ethoxy)-6-trifluoromethyl-pyridin-3-yl]-acrylamide]",2200 nM
10,"CCCCNc1nc(C(F)(F)F)ccc1/C=C/C(=O)NCc1ccc(NS(C)(=O)=O)c(F)c1 [Example 88, 3-(2-Butylamino-6-trifluoromethyl-pyridin-3-yl)-N-(3-fluoro-4-methanesulfonylamino-benzyl)-acrylamide]",400 nM
11,"CS(=O)(=O)Nc1ccc(CNC(=O)/C=C/c2ccc(C(F)(F)F)nc2NC2CCCC2)cc1F [Example 89, 3-(2-Cyclopentylamino-6-trifluoromethyl-pyridin-3-yl)-N-(3-fluoro-4-methanesulfonylamino-benzyl)-acrylamide]",280 nM
12,"COC1CCN(c2nc(C(F)(F)F)ccc2C=CC(=O)NCc2ccc(NS(C)(=O)=O)c(F)c2)C1 (stereo not shown) [Example 90, N-(3-Fluoro-4-methanesulfonylamino-benzyl)-3-[2-(3-methoxy-pyrrolidin-1-yl)-6-trifluoromethyl-pyridin-3-yl]-acrylamide]",410 nM
13,"C#Cc1cc(CNC(=O)CCc2ccc(C(F)(F)F)nc2N2CCCC2)cc(F)c1NS(C)(=O)=O [Example 91, N-(3-Ethynyl-5-fluoro-4-methanesulfonylamino-benzyl)-3-(2-pyrrolidin-1-yl-6-trifluoromethyl-pyridin-3-yl)-propionamide]",580 nM
14,"C#Cc1cc(CNC(=O)/C=C/c2ccc(C(F)(F)F)nc2OC2CCCC2)cc(F)c1NS(C)(=O)=O [Example 92, 3-(2-Cyclopentoxy-6-trifluoromethyl-pyridin-3-yl)-N-(3-ethynyl-5-fluoro-4-methanesulfonylamino-benzyl)-acrylamide]",520 nM
15,"C#Cc1cc(CNC(=O)/C=C/c2ccc(C(F)(F)F)nc2OCC2CC2)cc(F)c1NS(C)(=O)=O [Example 93, 3-(2-Cyclopropylmethoxy-6-trifluoromethyl-pyridin-3-yl)-N-(3-ethynyl-5-fluoro-4-methanesulfonylamino-benzyl)-acrylamide]",360 nM
16,"C#Cc1cc(CNC(=O)/C=C/c2ccc(C(F)(F)F)nc2N(C)C)cc(F)c1NS(C)(=O)=O [Example 94, 3-(2-Dimethylamino-6-trifluoromethyl-pyridin-3-yl)-N-(3-ethynyl-5-fluoro-4-methanesulfonylamino-benzyl)-acrylamide]",590 nM
17,"CCOC(=O)C1CCN(c2nc(C(F)(F)F)ccc2/C=C/C(=O)NCc2ccc(NS(C)(=O)=O)c(F)c2)CC1 [Example 95, N-(3-Fluoro-4-methanesulfonylamino-benzyl)-3-[2-(4-ethoxycarbonyl-piperid-1-yl)-6-trifluoromethyl-pyridin-3-yl]-acrylamide]",550 nM
18,"C#Cc1cc(CNC(=O)/C=C/c2ccc(C(F)(F)F)nc2OCc2ccccc2)cc(F)c1NS(C)(=O)=O [Example 96, N-(3-Ethynyl-5-fluoro-4-methanesulfonylamino-benzyl)-3-(2-benzyloxy 6-trifluoromethyl-pyridin-3-yl)-acrylamide]",1700 nM
19,"CS(=O)(=O)Nc1c(F)cc(CNC(=O)/C=C/c2ccc(C(F)(F)F)nc2N2CCCC2)cc1C#N [Example 97, N-(3-Cyano-5-fluoro-4-methanesulfonylamino-benzyl)-3-(2-pyrrolidin-1-yl-6-trifluoromethyl-pyridin-3-yl)-acrylamide]",290 nM
20,"CCCCOc1nc(C(F)(F)F)ccc1/C=C/C(=O)NCc1cc(F)c(NS(C)(=O)=O)c(C#N)c1 [Example 98, 3-(2-Butoxy-6-trifluoromethyl-pyridin-3-yl)-N-(3-cyano-5-fluoro-4-methanesulfonylamino-benzyl)-acrylamide]",190 nM
21,"COCCOc1nc(C(F)(F)F)ccc1/C=C/C(=O)NCc1cc(F)c(NS(C)(=O)=O)c(C#N)c1 [Example 99, N-(3-Cyano-5-fluoro-4-methanesulfonylamino-benzyl)-3-[2-(2-methoxy-ethoxy)-6-trifluoromethyl-pyridin-3-yl]-acrylamide]",1800 nM
22,"COCCNc1nc(C(F)(F)F)ccc1/C=C/C(=O)NCc1cc(F)c(NS(C)(=O)=O)c(C#N)c1 [Example 101, N-(3-Cyano-5-fluoro-4-methanesulfonylamino-benzyl)-3-[2-(2-methoxy-ethylamino)-6-trifluoromethyl-pyridin-3-yl]-acrylamide]",840 nM
23,"CS(=O)(=O)Nc1c(F)cc(CNC(=O)/C=C/c2ccc(C(F)(F)F)nc2N2CCOCC2)cc1C#N [Example 103, N-(3-Cyano-5-fluoro-4-methanesulfonylamino-benzyl)-3-(2-morpholin-4-yl-6-trifluoromethyl-pyridin-3-yl)-acrylamide]",5900 nM
24,"CS(=O)(=O)Nc1ccc(CNC(=O)/C=C/c2ccc(C(F)(F)F)nc2OC2CCOC2)cc1F (stereo not shown) [Example 104, 3-[2-(Tetrahydro-furan-3-yloxy)-6-trifluoromethyl-pyridin-3-yl]-N-(3-fluoro-4-methanesulfonylamino-benzyl)-acrylamide]",1600 nM
25,"CS(=O)(=O)Nc1c(F)cc(CNC(=O)/C=C/c2ccc(C(F)(F)F)nc2Oc2ccccc2)cc1C#N [Example 105, N-(3-Cyano-5-fluoro-4-methanesulfonylamino-benzyl)-3-(2-phenoxy-6-trifluoromethyl-pyridin-3-yl)-acrylamide]",630 nM
26,"CCC(C)Oc1nc(C(F)(F)F)ccc1/C=C/C(=O)NCc1cc(F)c(NS(C)(=O)=O)c(C#N)c1 (stereo not shown) [Example 106, 3-(2-sec-Butoxy-6-trifluoromethyl-pyridin-3-yl)-N-(3-cyano-5-fluoro-4-methanesulfonylamino-benzyl)-acrylamide]",83 nM
27,"C#Cc1cc(CNC(=O)/C=C/c2ccc(C(F)(F)F)nc2-c2ccccc2)cc(F)c1NS(C)(=O)=O [Example 107, N-(3-Ethynyl-5-fluoro-4-methanesulfonylamino-benzyl)-3-(2-phenyl-6-trifluoromethyl-pyridin-3-yl)-acrylamide]",510 nM
28,"CC(C)Oc1nc(C(F)(F)F)ccc1/C=C/C(=O)NCc1ccc(NS(C)(=O)=O)c(F)c1 [Example 108, N-(3-Fluoro-4-methanesulfonylamino-benzyl)-3-(2-isopropoxy-6-trifluoromethyl-pyridin-3-yl)-acrylamide]",740 nM
